The values that follow come from US20260373266A1, “PROTEIN DEGRADERS AND USES THEREOF” (KYMERA THERAPEUTICS, INC., priority 2022, published 2026).

This assay deals with T1, DCAF1 WD40 domain (residues 1077-1390) (Homo sapiens, UniProt Q9Y4B6).
T1 construct: DCAF1 WD40 domain (residues 1077-1390)
T1 sequence (Q9Y4B6 1077-1390): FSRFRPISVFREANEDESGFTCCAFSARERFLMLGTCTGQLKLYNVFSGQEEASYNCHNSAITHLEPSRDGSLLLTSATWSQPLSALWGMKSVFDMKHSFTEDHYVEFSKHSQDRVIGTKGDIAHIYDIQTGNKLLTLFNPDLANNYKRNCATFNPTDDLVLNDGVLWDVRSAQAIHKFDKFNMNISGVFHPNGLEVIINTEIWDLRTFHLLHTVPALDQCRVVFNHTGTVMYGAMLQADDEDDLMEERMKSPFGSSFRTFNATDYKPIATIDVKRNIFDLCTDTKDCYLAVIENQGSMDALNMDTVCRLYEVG
Put plainly: DCAF1 binding assay by SPR (Biacore 8K+), DCAF1-3 KD. As to conditions: 25 °C, read-out: DCAF1-3 SPR (KD).
`Cc1ccc(F)c(-c2[nH]ncc2C(=O)N[C@@H](CC(N)=O)c2cccc(Cl)c2)c1` [I-505]: the dissociation constant (Kd) is less than 10 µM.
Regarding `c1ccc2cc(N3CCC[C@@H](Nc4nccc(N5CCOCC5)n4)C3)ccc2c1` [I-32], the Kd is more than 200 µM.
The figure for `c1cc(N2CCCCC2)cc(N[C@H]2CCC[C@H](C3CCCCC3)C2)n1` [I-750] is more than 200 µM; for `Cc1c(F)ccc(F)c1-c1c(C(=O)N[C@@H](CC(=O)N(C)C)c2cccc(Cl)c2)c[nH]c1C(=O)COCCOCCOCCOCCOCCN` [I-822] it is less than 10 µM; for `Cc1sc2c(c1C)C(c1ccc(Cl)cc1)=N[C@@H](CC(=O)NCCOCCOCCOCCOCCC1CCN(c3ccnc(N4CC[C@@H]5[C@H]4CCCN5c4cccc(F)c4)c3)CC1)c1nnc(C)n1-2` [I-890] it is less than 10 µM.
Next, `COCCOCCC1CN(c2cc(N3CCOCC3)ccn2)[C@H]2CCCN(c3cccc(F)c3)[C@@H]12` (some centres unmarked) [I-827]: less than 10 µM; `O=C1COc2cc(N3CCC[C@@H](Nc4cc(N5CCOCC5)ccn4)C3)cnc2N1` [I-431]: less than 10 µM.
For `Fc1cccc(N2CCC[C@@H]3[C@H]2CCN3c2cc(N3CC4CCC(C4)C3)ccn2)c1` [I-604], the Kd is less than 10 µM.
On to `O=c1cc(N2CCOCC2)cc(N[C@@H]2CCCN(c3cccc(F)c3)C2)[nH]1` [I-303], for which the Kd is more than 200 µM.
`Cc1sc2c(c1C)C(c1ccc(Cl)cc1)=N[C@@H](CC(=O)NCCOCCOCCOCCOCCCc1ccc(C(=O)c3[nH]cc(C(=O)N[C@@H](CC(=O)N4CCN(C(=O)OCc5ccccc5)CC4)c4cccc(Cl)c4)c3-c3c(F)ccc(F)c3C)cc1)c1cnc(C)n1-2` [I-914]: the Kd is less than 10 µM.
For the molecule `Fc1cccc(N2CCC[C@@H](n3cnc4c(N5CCOCC5)ccnc43)C2)c1` [I-50], the Kd is more than 200 µM.
With `NC(=O)C[C@H](NC(=O)c1cnn(CCc2ccccc2)c1-c1ccccc1F)c1cccc(Cl)c1` [I-170], the equilibrium dissociation constant (Kd) was more than 200 µM.
Consider `NC(=O)C[C@H](N/C(=N\O)c1cn[nH]c1-c1ccccc1F)c1cccc(Cl)c1` [I-162], for which the Kd was more than 200 µM.
Take `Nc1ccc(F)cc1N1CCC[C@@H](Nc2cc(N3CCOCC3)ccn2)C1` [I-682]: the dissociation constant Kd was less than 10 µM.
With `c1ccc(N2CCC[C@@H]3[C@H]2CCN3c2cc(N3CC4CC(C4)C3)ccn2)cc1` [I-708], the dissociation constant Kd was less than 10 µM.
In the case of `CN1CCN(CC2CCN(c3ccnc(N4CC[C@@H]5[C@H]4CCCN5c4cccc(F)c4)c3)CC2)CC1` [I-815], the Kd was less than 10 µM.
In the case of `Cc1cccc(F)c1-c1c(C(=O)N[C@@H](CC(N)=O)c2cccc(Cl)c2)c[nH]c1C(=O)c1ccccn1` [I-699], the Kd is less than 10 µM.
For `Cc1[nH]nc(C(=O)N[C@@H](CC(N)=O)c2cccc(Cl)c2)c1-c1ccccc1F` [I-230], the Kd is more than 200 µM.
Turning to `c1cnc2ccnc(N3CCC[C@@H](Nc4cc(N5CCOCC5)ccn4)C3)c2c1` [I-63], the Kd lay within 100 to 200 µM.
Take `c1cc(N2CCC[C@@H](Nc3cc(N4CCOCC4)ncn3)C2)ccn1` [I-6]: the Kd is more than 200 µM.
Turning to `O=CNc1ccc(N2CCC[C@H]3[C@@H]2CCN3c2cc(N3CCCCC3)ccn2)cc1F` [I-762], the Kd is more than 200 µM.
With `c1ccc(Cc2ccc(N3CCC[C@@H](Nc4cc(N5CCOCC5)ccn4)C3)nc2)cc1` [I-435], the Kd is more than 200 µM.
Consider `Cc1cc(Cl)cc(C)c1-c1c(C(=O)N[C@@H](CC(N)=O)c2cccc(Cl)c2)c[nH]c1C(=O)c1ccccc1` [I-969], for which the Kd was less than 10 µM.
In the case of `NC(=O)CN(c1cc(N2CCOCC2)ccn1)[C@@H]1CCCN(c2cccc(F)c2)C1` [I-272], the Kd is more than 200 µM.
In the case of `c1cc(N2CCC[C@@H](Nc3cc(N4CCOCC4)ncn3)C2)c2cccnc2c1` [I-393], the Kd is more than 200 µM.
Take `Cc1c(F)ccc(F)c1-c1c(C(=O)N[C@@H](CC(N)=O)c2cccc(Cl)c2)c[nH]c1C(=O)c1cccc(C2CCCCC2)c1` [I-732]: the Kd was less than 10 µM.
For `OC[C@H]1CC[C@H](Nc2cc(N3CCCCC3)ccn2)CN1c1cccc(F)c1` [I-994], the Kd was 10 to 100 µM.
Turning to `NC(=O)C[C@H](NC(=O)c1c[nH]nc1-c1ccccn1)c1cccc(Cl)c1` [I-335], the dissociation constant (Kd) lay in the range of 10 to 100 µM.
For `CCn1cc(C(=O)N[C@@H](CC(N)=O)c2cccc(Cl)c2)c(-c2c(F)ccc(F)c2C)c1C#N` [I-974], the Kd is less than 10 µM.
`NC(=O)C[C@H](NC(=O)c1c[nH]nc1-c1ccccc1O)c1cccc(Cl)c1` [I-334]: the dissociation constant (Kd) lay within 10 to 100 µM.
On to `NC(=O)C[C@H](NC(=O)c1cn[nH]c1-c1oncc1O)c1cccc(Cl)c1` [I-161], for which the dissociation constant Kd is more than 200 µM.
`C=CC(=O)NCCCC1CCN(c2ccnc(N3CC[C@H]4[C@@H]3CCCN4c3cccc(F)c3)c2)CC1` [I-712]: the Kd was less than 10 µM.
Take `COc1ccc(C(=O)c2[nH]cc(C(=O)N[C@@H](CC(N)=O)c3cccc(Cl)c3)c2-c2c(F)ccc(F)c2C)cc1` [I-810]: the equilibrium dissociation constant (Kd) was less than 10 µM.
With `NC[C@@H]1CCN(c2cccc(F)c2)C[C@H]1Nc1cc(N2CCCCC2)ccn1` [I-1044], the Kd was 10 to 100 µM.
As for `NC(=O)C[C@H](NC(=O)c1c[nH]nc1-c1ccc2[nH]cnc2c1)c1cccc(Cl)c1` [I-356], the Kd lay in the range of 10 to 100 µM.
For `c1ccc2c(N3CCC[C@@H](n4ccc(N5CCOCC5)c5ccnc4-5)C3)nccc2c1` [I-367], the equilibrium dissociation constant (Kd) is more than 200 µM.
In the case of `Nc1cc(N[C@@H]2CCCN(c3cccc(F)c3)C2)cc(C2CCCCC2)c1` [I-970], the Kd was 10 to 100 µM.
In the case of `COCCOCC(=O)c1[nH]cc(C(=O)N[C@@H](CC(N)=O)c2cccc(Cl)c2)c1-c1ccccc1F` [I-556], the Kd was less than 10 µM.
With `Cc1cccc(F)c1-c1c(C(=O)N[C@@H](CC(N)=O)c2cccc(Cl)c2)c[nH]c1C(=O)c1ccc(N2CCCCC2)cc1` [I-801], the Kd is less than 10 µM.
With `Fc1cccc(N2CCCC3(CNc4cnc(N5CCCCC5)cc4N3)C2)c1` (centres unmarked) [I-993], the dissociation constant (Kd) was 10 to 100 µM.
For the molecule `NC(=O)C[C@H](NC(=O)c1[nH]nc(Nc2ccncn2)c1-c1ccccc1F)c1cccc(Cl)c1` [I-168], the equilibrium dissociation constant (Kd) is more than 200 µM.
The figure for `NC(=O)N1CC2(CCCN(c3cccc(F)c3)C2)Nc2cc(N3CCCCC3)ncc21` (centres unmarked) [I-1006] is 100 to 200 µM; for `Fc1cccc(N2CCC[C@@H](Nc3ncc(N4CCOCC4)o3)C2)c1` [I-327] it is more than 200 µM.
`COc1cnc(N2CCOCC2)cc1N[C@@H]1CCCN(c2cccc(F)c2)C1` [I-407]: the Kd is more than 200 µM.
`NC(=O)C[C@H](NC(=O)c1cn[nH]c1C1=CCOCC1)c1cccc(Cl)c1` [I-496]: the equilibrium dissociation constant (Kd) lay within 10 to 100 µM.
Consider `Fc1cccc(N2CCC[C@@H](Nc3cc(C4CCNCC4)ccn3)C2)c1` [I-93], for which the dissociation constant (Kd) is more than 200 µM.
As to `C=CC(=O)NCCCC1CCN(c2ccnc(N3CC[C@@H]4[C@H]3CCCN4c3cccc(F)c3)c2)CC1` [I-705], the Kd fell in the range of 100 to 200 µM.
As for `NC(=O)C[C@H](NC(=O)c1[nH][nH]c(=O)c1-c1ccccc1F)c1cccc(Cl)c1` [I-548], the Kd is more than 200 µM.
The figure for `COCCOCC[C@@H]1CN(c2cc(N3CCCCC3)ccn2)[C@@H]2CCCN(c3cccc(F)c3)[C@H]12` [I-996] is 10 to 100 µM; for `C=CC(=O)Nc1ccc(-c2n[nH]cc2C(=O)N[C@@H](CC(N)=O)c2cccc(Cl)c2)cc1` [I-474] it is more than 200 µM.
For `NCC1CC[C@@H](Nc2cc(N3CCCCC3)ccn2)CN1c1cccc(F)c1` (some centres unmarked) [I-1019], the dissociation constant (Kd) was 10 to 100 µM.
With `NC(=O)C[C@H](NC(=O)c1c[nH]c(-c2ccc[nH]2)c1-c1ccccc1F)c1cccc(Cl)c1` [I-600], the dissociation constant Kd is less than 10 µM.
As for `COCc1ccc(F)c(-c2[nH]ncc2C(=O)N[C@@H](CC(N)=O)c2cccc(Cl)c2)c1` [I-248], the Kd is 10 to 100 µM.
Next, `NC(=O)C[C@H](NC(=O)c1c[nH]nc1-c1cccc2nc[nH]c12)c1cccc(Cl)c1` [I-239]: more than 200 µM; `COCCN(c1cc(N2CCOCC2)ccn1)[C@@H]1CCCN(c2cccc(F)c2)C1` [I-76]: 10 to 100 µM.
With `NC[C@H]1C[C@@H](Nc2cc(N3CCCCC3)ccn2)CN(c2cccc(F)c2)C1` [I-1041], the Kd lay in the range of 10 to 100 µM.
Turning to `OC[C@@H]1CC[C@H](Nc2cc(N3CCCCC3)ccn2)CN1c1cccc(F)c1` [I-1007], the equilibrium dissociation constant (Kd) is less than 10 µM.
Next, `NC(=O)NCc1cccc(N2CCC[C@H]3[C@@H]2CCN3c2cc(N3CCCCC3)ccn2)c1` [I-953]: less than 10 µM; `C[C@H]1CCCCN1c1ccnc2c1CCN2C1CCCN(c2cccc(F)c2)C1` (some centres unmarked) [I-788]: less than 10 µM.
As to `NC(=O)C[C@H](NC(=O)c1cn[nH]c1-c1ccccc1F)c1cccc(C(N)=O)c1` [I-353], the Kd is more than 200 µM.
For the molecule `CC(C)c1cccc(-c2[nH]ncc2C(=O)N[C@@H](CC(N)=O)c2cccc(Cl)c2)c1F` [I-563], the dissociation constant Kd is 10 to 100 µM.
The figure for `NC(=O)C[C@H](NC(=O)c1cn[nH]c1-c1cc(CCC(=O)O)ccc1F)c1cccc(Cl)c1` [I-284] is 10 to 100 µM.
Next, `Fc1cccc(N2CCC[C@@H](Nc3cc(N4CCOCC4)cnn3)C2)c1` [I-20]: more than 200 µM.
Regarding `O[C@@H]1CCCN(c2ccnc(N3CC[C@H]4[C@@H]3CCCN4c3cccc(F)c3)c2)C1` [I-799], the Kd was more than 200 µM.
On to `COC(=O)c1cc(N2CCC[C@@H](Nc3cc(N4CCOCC4)ccn3)C2)cc2c1OCO2` [I-779], for which the Kd is more than 200 µM.
For the molecule `NC(=O)C[C@H](NC(=O)c1cn[nH]c1-c1cccc(O)c1)c1cccc(Cl)c1` [I-332], the dissociation constant (Kd) lay in the range of 10 to 100 µM.
Turning to `c1ccc(N2CCC[C@@H](Nc3cc(N4CCOCC4)ccn3)C2)cc1` [I-75], the dissociation constant (Kd) is 10 to 100 µM.
Next, `NC(=O)C[C@H](NC(=O)c1cn[nH]c1-c1ccccc1F)c1ccncc1` [I-341]: more than 200 µM; `NC(=O)C[C@H](NC(=O)c1cn[nH]c1-c1ccccc1F)c1cnsc1` [I-187]: more than 200 µM; `Cc1ccccc1-c1[nH]ncc1C(=O)N[C@@H](CC(N)=O)c1cccc(Cl)c1` [I-104]: less than 10 µM.
For `NC(=O)C[C@H](NC(=O)c1cn[nH]c1-c1ccncc1)c1cccc(Cl)c1` [I-336], the equilibrium dissociation constant (Kd) was in the range of 10 to 100 µM.
As to `OC1CCCN(c2ccnc(N[C@@H]3CCCN(c4cccc(F)c4)C3)c2)C1` (some centres unmarked) [I-701], the dissociation constant Kd was less than 10 µM.
Consider `COCCN1CCN(c2cc(N[C@@H]3CCCN(c4cccc(F)c4)C3)ncn2)CC1` [I-378], for which the Kd is more than 200 µM.
Consider `Cc1cccc(F)c1-c1c(C(=O)N[C@@H](CC(N)=O)c2cccc(Cl)c2)c[nH]c1Nc1cc(N2CCCCC2)ccn1` [I-744], for which the equilibrium dissociation constant (Kd) is less than 10 µM.
